Where two headings read alike, the source gives them in different places.
Tests used:
[1] = test system: insulin-resistant male rat (Ico: ZUCKER-fa/fa); experiment: Normalization of metabolic parameters (cholesterol, plasma triglycerides) in insulin-resistant rat; type: in vivo; conditions: oral route, once per day for four days, Zucker fa/fa rat unfed 16-18 hours; for change in vivo at 10 mg/kg / change in vivo at 2.5 mg/kg: 96 h
Experimental: Normalization of metabolic parameters (cholesterol, plasma triglycerides) in an insulin-resistant male rat (Ico: ZUCKER-fa/fa), unfed for 16-18 hours, after treatment by oral route, once per day for four days, with the compounds to be evaluated or their administration vehicle.
These metabolic parameters are measured by spectrophotometry at the beginning and the end of each animal's treatment.

human PPARδ = target: T1, human PPARδ (Homo sapiens, UniProt Q03181); experiment: Reporter gene transactivation, hPPAR-GAL4 delta; type: cell-based; conditions: transfected Cos-7 cells, Gal-4 luciferase reporter, 24 hours treatment
T1 construct: expressed in transfected cells; host or cells: Cos-7 cells (ATCC, CRL-1651)
T1 sequence (Q03181 211-439 limits assumed): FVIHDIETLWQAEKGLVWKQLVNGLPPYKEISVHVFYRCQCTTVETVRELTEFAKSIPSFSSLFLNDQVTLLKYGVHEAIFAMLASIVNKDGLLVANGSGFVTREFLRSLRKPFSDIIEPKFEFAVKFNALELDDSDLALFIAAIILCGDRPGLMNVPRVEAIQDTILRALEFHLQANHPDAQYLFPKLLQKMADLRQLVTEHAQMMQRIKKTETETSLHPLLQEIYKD

human PPARγ = target: T2, human PPARγ (Homo sapiens, UniProt P37231); experiment: Reporter gene transactivation, hPPAR-GAL4 gamma; type: cell-based; conditions: transfected Cos-7 cells, Gal-4 luciferase reporter, 24 hours treatment
T2 construct: expressed in transfected cells; host or cells: Cos-7 cells (ATCC, CRL-1651)
T2 sequence (P37231 238-503 limits assumed): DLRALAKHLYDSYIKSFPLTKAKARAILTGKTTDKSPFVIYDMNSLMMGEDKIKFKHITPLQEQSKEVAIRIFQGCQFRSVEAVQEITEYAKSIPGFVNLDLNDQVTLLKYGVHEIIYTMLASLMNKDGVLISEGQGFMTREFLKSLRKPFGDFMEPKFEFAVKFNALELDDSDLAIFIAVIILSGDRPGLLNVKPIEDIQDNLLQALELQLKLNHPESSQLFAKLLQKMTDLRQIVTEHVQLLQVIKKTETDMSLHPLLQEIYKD

human PPARα = target: T3, human PPARα (Homo sapiens, UniProt Q07869); experiment: Reporter gene transactivation, hPPAR-GAL4 alpha; type: cell-based; conditions: transfected Cos-7 cells, Gal-4 luciferase reporter, 24 hours treatment
T3 construct: expressed in transfected cells; host or cells: Cos-7 cells (ATCC, CRL-1651)
T3 sequence (Q07869 239-466 limits assumed): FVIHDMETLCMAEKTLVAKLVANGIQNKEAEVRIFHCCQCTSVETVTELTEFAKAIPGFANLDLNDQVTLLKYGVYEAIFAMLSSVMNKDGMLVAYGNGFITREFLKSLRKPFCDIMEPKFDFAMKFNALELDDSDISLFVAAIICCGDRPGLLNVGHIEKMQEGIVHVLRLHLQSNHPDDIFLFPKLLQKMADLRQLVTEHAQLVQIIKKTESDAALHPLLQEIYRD

[2] = at 10 mg/kg, read-out: Plasma cholesterol
[3] = at 10 mg/kg, read-out: Plasma triglycerides
[4] = at 2.5 mg/kg, read-out: Plasma cholesterol

Row | Structure (SMILES) | EC50 (human PPARδ) [nM] | EC50 (human PPARγ) [nM] | EC50 (human PPARα) [nM] | change in vivo at 10 mg/kg [1, 2] [%] | Plasma triglycerides ([1]; at 10 mg/kg) | change in vivo at 10 mg/kg [1, 3] [%] | Plasma cholesterol ([1]; at 2.5 mg/kg) | Plasma triglycerides ([1]; at 2.5 mg/kg) | change in vivo at 2.5 mg/kg [1, 4] [%] | change in vivo at 2.5 mg/kg ([1]; at 2.5 mg/kg, read-out: Plasma triglycerides) [%]
1 | CCOC(=O)C(C)(C)Oc1cccc(CCCCNc2nn(CCCC(F)(F)F)c(=O)n(CCCC(F)(F)F)c2=O)c1 [Example 80, Ethyl 2-(3-{4-[3,5-dioxo-2,4-bis-(4,4,4-trifluoro-butyl)-2,3,4,5-tetrahydro-[1,2,4]triazin-6-ylamino]-butyl}-phenoxy)-2-methyl-propionate] | > 10000 | 300 to 1000 | 10 to 30 | -16 | inactive at 10 |  |  |  |  | 
2 | CCCCCCCn1nc(NCCCCc2cccc(OC(C)(C)C(=O)O)c2)c(=O)n(CCCC(F)(F)F)c1=O [Example 84, 2-(3-{4-[2-Heptyl-3,5-dioxo-4-(4,4,4-trifluoro-butyl)-2,3,4,5-tetrahydro-[1,2,4]triazin-6-ylamino]-butyl}-phenoxy)-2-methyl-propionic Acid] | 1000 to 3000 | ~300 | 3 to 10 | -13 |  | -7 | inactive at 2.5 | inactive at 2.5 |  | 
3 | Cn1nc(NCCCCc2cccc(SC(C)(C)C(=O)O)c2)c(=O)n(CCCC(F)(F)F)c1=O [Example 96, 2-Methyl-2-(3-{4-[2-methyl-3,5-dioxo-4-(4,4,4-trifluoro-butyl)-2,3,4,5-tetrahydro-[1,2,4]triazin-6-ylamino]-butyl}-phenylsulfanyl)-propionic Acid] | > 10000 | ~10000 | 30 to 100 | -21 |  | -60 |  |  | -28 | -26

Now from value to compound, other results behind:

Row | EC50 (human PPARδ) [nM] | EC50 (human PPARγ) [nM] | EC50 (human PPARα) [nM] | Structure (SMILES) | change in vivo at 10 mg/kg [1, 2] [%] | Plasma triglycerides ([1]; at 10 mg/kg) | change in vivo at 10 mg/kg [1, 3] [%] | Plasma cholesterol ([1]; at 2.5 mg/kg) | Plasma triglycerides ([1]; at 2.5 mg/kg) | change in vivo at 2.5 mg/kg [1, 4] [%] | change in vivo at 2.5 mg/kg ([1]; at 2.5 mg/kg, read-out: Plasma triglycerides) [%]
4 | 1000 to 3000 | ~10000 | 1000 to 3000 | CCCCCCCN(CCc1ccc(OC(C)(C)C(=O)OCC)cc1)c1nn(C)c(=O)n(C)c1=O [Example 112, Ethyl 2-(4-{2-[(2,4-dimethyl-3,5-dioxo-2,3,4,5-tetrahydro-[1,2,4]triazin-6-yl)-heptyl-amino]-ethyl}-phenoxy)-2-methyl-propionate] | -43 |  | -31 |  |  |  | 
5 | 300 to 1000 | 3000 to 10000 | 300 to 1000 | CCCCCCCN(CCc1ccc(OC(C)(C)C(=O)O)cc1)c1nn(C)c(=O)n(C)c1=O [Example 113, 2-(4-{2-[(2,4-Dimethyl-3,5-dioxo-2,3,4,5-tetrahydro-[1,2,4]triazin-6-yl)-heptyl-amino]-ethyl}-phenoxy)-2-methyl-propionic Acid] | -40 |  | -26 |  | inactive at 2.5 | -30 | 

— patent US7713971B2, “1,2,4-triazine derivatives, preparation and use thereof in human therapy” (Pierre Fabre Medicament, priority 2005, dated 2010)
